Legend:
Glucocorticoid receptor [1] = biological target: T1, Glucocorticoid receptor (Homo sapiens, UniProt P04150); assay: Displacement of [3H]dexamethasone from human recombinant glucocorticoid receptor expressed in baculovirus after 18 hrs by scintillation counting analysis
T1 sequence (P04150 whole entry): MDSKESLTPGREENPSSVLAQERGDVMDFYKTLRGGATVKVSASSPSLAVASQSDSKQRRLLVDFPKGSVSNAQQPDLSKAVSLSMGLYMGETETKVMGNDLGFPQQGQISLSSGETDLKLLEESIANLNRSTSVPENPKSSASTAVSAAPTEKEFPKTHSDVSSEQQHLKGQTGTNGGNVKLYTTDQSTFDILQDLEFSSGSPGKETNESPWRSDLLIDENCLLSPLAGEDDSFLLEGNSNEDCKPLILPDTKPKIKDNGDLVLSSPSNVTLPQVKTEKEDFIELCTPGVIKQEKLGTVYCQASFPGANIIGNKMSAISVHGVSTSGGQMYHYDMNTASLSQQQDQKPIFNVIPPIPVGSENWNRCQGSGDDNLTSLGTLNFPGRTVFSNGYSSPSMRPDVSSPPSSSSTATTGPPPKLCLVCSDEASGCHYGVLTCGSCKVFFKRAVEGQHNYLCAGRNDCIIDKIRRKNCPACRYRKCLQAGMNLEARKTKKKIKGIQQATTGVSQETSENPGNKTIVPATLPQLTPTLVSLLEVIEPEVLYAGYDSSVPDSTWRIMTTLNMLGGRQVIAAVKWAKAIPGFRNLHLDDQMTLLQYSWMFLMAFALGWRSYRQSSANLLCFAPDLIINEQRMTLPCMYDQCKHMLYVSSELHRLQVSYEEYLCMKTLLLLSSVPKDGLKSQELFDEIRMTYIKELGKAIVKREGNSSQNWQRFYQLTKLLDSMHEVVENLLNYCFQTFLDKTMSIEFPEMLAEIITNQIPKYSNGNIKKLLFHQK

Glucocorticoid receptor [2] = biological target: T1, Glucocorticoid receptor; assay: Antagonist activity at glucocorticoid receptor in human SW1353 cells assessed as inhibition of dexamethasone-induced luciferase expression after 16 hrs by MMTV5 reporter gene assay; assay type: functional, cell-based
Rattus norvegicus [3] = assay: Antagonist activity at glucocorticoid receptor in Sprague-Dawley rat assessed as change in olanzapine-induced weight gain at 0.2 mg/kg/day, po administered as divided doses twice daily for 21 days (Rvb =+ 36.5 +/- 10 g); assay type: functional
Liver microsomes [4] = assay: Metabolic stability in human liver microsomes; assay type: ADME, Microsome
Rattus norvegicus [5] = assay: Antagonist activity at glucocorticoid receptor in Sprague-Dawley rat assessed as change in olanzapine-induced weight gain at 0.6 mg/kg/day, po administered as divided doses twice daily for 21 days (Rvb =+ 36.5 +/- 10 g); assay type: functional
[6] = Clearance in rat at 1 mg/kg, iv; assay type: ADME, organism-based; design: dose 1 mg/kg, route intravenous; settings: in vivo
Cytochrome P450 2C9 = Cytochrome P450 2C9 (Homo sapiens, UniProt P11712); assay: Inhibition of human CYP2C9; assay type: ADME
Rattus norvegicus [7] = assay: Antagonist activity at glucocorticoid receptor in Sprague-Dawley rat assessed as change in olanzapine-induced weight gain at 2 mg/kg/day, po administered as divided doses twice daily for 21 days (Rvb =+ 36.5 +/- 10 g); assay type: functional
Cytochrome P450 1A2 = biological target: T2, Cytochrome P450 1A2 (Homo sapiens, UniProt P05177); assay: Inhibition of human CYP1A2; assay type: ADME
T2 sequence (P05177 whole entry): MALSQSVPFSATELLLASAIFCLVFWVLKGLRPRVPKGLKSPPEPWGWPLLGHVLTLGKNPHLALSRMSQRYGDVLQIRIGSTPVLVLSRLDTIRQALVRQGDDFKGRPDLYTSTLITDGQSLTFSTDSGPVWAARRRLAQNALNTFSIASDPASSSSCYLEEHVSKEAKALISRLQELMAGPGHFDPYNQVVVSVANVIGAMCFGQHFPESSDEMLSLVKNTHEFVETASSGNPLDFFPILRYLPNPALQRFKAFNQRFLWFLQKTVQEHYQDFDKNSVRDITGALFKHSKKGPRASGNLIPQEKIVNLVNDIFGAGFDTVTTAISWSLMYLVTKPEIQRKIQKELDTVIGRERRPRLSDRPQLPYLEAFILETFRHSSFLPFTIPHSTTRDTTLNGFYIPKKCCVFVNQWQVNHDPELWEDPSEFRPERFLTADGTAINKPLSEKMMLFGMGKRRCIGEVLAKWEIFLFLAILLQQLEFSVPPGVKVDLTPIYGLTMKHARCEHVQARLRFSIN

Liver microsomes [8] = assay: Metabolic stability in rat liver microsomes; assay type: ADME, Microsome
Cytochrome P450 3A4 = Cytochrome P450 3A4 (Homo sapiens, UniProt P08684); assay: Inhibition of human CYP3A4; assay type: ADME
Cytochrome P450 2C19 = Cytochrome P450 2C19 (Homo sapiens, UniProt P33261); assay: Inhibition of human CYP2C19; assay type: ADME
[9] = Oral bioavailability in rat at 5 mg/kg; assay type: ADME, organism-based; settings: in vivo
[10] = Plasma protein binding in human; assay type: ADME, cell-free; settings: read-out: PPB
[11] = Plasma protein binding in rat; assay type: ADME, cell-free; settings: read-out: PPB
Rattus norvegicus [12] = assay: Antagonist activity at glucocorticoid receptor in Sprague-Dawley rat assessed as change in olanzapine-induced weight gain at 6 mg/kg/day, po administered as divided doses twice daily for 21 days (Rvb =+ 36.5 +/- 10 g); assay type: functional
[13] = Half life in rat at 1 mg/kg, iv; assay type: ADME, organism-based; design: dose 1 mg/kg, route intravenous; settings: in vivo
Cytochrome P450 2D6 = Cytochrome P450 2D6 (Homo sapiens, UniProt P10635); assay: Inhibition of human CYP2D6; assay type: ADME
Rattus norvegicus [14] = assay: Antagonist activity at glucocorticoid receptor in Sprague-Dawley rat assessed as change in olanzapine-induced weight gain at 10 mg/kg/day, po administered as divided doses twice daily for 21 days (Rvb =+ 36.5 +/- 10 g); assay type: functional
Liver = assay: Metabolic stability in human liver microsomes

Sequence of Cytochrome P450 2D6 (P10635 whole entry): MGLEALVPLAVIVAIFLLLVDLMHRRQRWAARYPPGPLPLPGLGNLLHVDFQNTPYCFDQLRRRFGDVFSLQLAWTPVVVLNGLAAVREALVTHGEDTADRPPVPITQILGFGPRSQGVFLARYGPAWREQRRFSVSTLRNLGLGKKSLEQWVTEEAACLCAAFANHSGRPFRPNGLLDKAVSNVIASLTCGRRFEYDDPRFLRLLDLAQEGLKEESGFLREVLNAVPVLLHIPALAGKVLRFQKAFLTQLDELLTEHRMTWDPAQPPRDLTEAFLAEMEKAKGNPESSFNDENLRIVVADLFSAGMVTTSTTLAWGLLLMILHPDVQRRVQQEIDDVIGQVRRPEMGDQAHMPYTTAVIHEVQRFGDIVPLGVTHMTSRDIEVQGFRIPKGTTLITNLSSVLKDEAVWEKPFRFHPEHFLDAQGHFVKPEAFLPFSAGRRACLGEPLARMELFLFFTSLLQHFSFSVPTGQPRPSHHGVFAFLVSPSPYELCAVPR
Sequence of Cytochrome P450 2C19 (P33261 whole entry): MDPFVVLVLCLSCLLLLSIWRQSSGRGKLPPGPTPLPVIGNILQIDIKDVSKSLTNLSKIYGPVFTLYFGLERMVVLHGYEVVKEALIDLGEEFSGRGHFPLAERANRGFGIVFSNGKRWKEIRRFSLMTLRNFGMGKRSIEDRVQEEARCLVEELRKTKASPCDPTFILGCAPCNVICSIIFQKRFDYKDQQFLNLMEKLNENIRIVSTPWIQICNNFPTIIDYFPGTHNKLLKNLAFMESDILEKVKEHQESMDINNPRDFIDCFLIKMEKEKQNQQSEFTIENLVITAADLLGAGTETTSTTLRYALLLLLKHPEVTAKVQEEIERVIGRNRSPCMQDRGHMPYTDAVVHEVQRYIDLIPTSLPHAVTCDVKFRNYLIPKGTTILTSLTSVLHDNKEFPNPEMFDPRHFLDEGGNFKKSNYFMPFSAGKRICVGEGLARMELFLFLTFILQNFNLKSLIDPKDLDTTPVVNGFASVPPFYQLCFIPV
Sequence of Cytochrome P450 2C9 (P11712 whole entry): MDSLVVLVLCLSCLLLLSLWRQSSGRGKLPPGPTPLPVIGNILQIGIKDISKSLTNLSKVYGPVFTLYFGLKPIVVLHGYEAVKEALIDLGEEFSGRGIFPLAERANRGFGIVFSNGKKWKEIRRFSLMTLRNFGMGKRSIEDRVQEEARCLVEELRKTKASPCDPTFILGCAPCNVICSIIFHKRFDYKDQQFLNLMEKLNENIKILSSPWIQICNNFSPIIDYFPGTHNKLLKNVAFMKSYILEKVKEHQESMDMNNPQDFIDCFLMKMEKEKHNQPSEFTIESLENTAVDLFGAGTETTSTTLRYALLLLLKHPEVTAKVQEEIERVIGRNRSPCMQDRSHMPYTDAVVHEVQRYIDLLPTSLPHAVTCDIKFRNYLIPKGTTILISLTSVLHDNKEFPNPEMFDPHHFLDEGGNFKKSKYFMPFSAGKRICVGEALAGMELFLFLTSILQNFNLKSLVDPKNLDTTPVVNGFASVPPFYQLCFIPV
Sequence of Cytochrome P450 3A4 (P08684 whole entry): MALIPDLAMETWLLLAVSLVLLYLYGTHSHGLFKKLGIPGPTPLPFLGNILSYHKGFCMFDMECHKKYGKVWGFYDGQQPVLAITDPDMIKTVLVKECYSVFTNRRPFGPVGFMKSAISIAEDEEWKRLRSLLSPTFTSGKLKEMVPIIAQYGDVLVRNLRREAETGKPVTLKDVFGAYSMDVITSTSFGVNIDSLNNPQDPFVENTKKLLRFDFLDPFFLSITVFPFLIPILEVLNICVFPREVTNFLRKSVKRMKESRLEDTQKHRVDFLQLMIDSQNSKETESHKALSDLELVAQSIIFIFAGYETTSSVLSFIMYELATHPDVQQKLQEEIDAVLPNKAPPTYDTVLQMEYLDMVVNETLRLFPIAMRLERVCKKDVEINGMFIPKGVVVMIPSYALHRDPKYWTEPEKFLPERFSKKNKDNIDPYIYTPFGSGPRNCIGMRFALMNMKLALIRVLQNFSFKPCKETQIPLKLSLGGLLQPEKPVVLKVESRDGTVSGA

Row | SMILES | Ki (Glucocorticoid receptor [1]) [nM] | Ki (Glucocorticoid receptor [2]) [nM] | also measured
1 | COCCn1c(=O)[nH]c([C@H]2CC[C@@H](c3ccccc3)CC2)c(Cc2cccc(C(F)(F)F)c2)c1=O | > 50 |  | 
2 | O=c1[nH]c(=O)c(Cc2ccccc2)c([C@H]2CC[C@H](c3ccccc3)CC2)[nH]1 | 4 | 44 | 
3 | O=c1[nH]c(=O)c(Cc2ccccc2)c([C@H]2CC[C@@H](c3ccccc3)CC2)[nH]1 | 32 |  | 
4 | Cc1cccc(Cc2c(=O)[nH]c(=O)[nH]c2[C@H]2CC[C@@H](c3ccccc3)CC2)c1 | 3 | 21 | 
5 | CCc1ccccc1Cc1c(=O)[nH]c(=O)[nH]c1[C@H]1CC[C@@H](c2ccccc2)CC1 | 19 | 78 | 
6 | O=c1[nH]c(=O)c(Cc2ccccc2Cl)c([C@H]2CC[C@@H](c3ccccc3)CC2)[nH]1 | 7 | 37 | 
7 | O=c1[nH]c(=O)c(Cc2cccc(C(F)(F)F)c2)c([C@H]2CC[C@@H](c3ccccc3)CC2)[nH]1 | 8 | 24 | Activity (Rattus norvegicus [3]): 25.6 g; Stability (Liver microsomes [4]): Stable; Activity (Rattus norvegicus [5]): 9.8 g; clearance [6]: 22 mL/min/kg; inhibition (INH) (Cytochrome P450 2C9): Not Active; Activity (Rattus norvegicus [7]): -10.2 g; inhibition (INH) (Cytochrome P450 1A2): Not Active; Stability (Liver microsomes [8]): Stable; inhibition (INH) (Cytochrome P450 3A4): Not Active; inhibition (INH) (Cytochrome P450 2C19): Not Active; bioavailability [9]: 20%; fraction unbound [10]: < 0.001; fraction unbound [11]: < 0.001; Activity (Rattus norvegicus [12]): -23.6 g; half-life [13]: 1.8 h; inhibition (INH) (Cytochrome P450 2D6): Not Active; Activity (Rattus norvegicus [14]): -23.7 g
8 | CS(=O)(=O)c1ccccc1Cc1c(=O)[nH]c(=O)[nH]c1[C@H]1CC[C@@H](c2ccccc2)CC1 | 557 |  | 
9 | COc1ccccc1Cc1c(=O)[nH]c(=O)[nH]c1[C@H]1CC[C@@H](c2ccccc2)CC1 | 9 | 56 | 
10 | O=c1[nH]c(=O)c(Cc2cc(Cl)ccc2Cl)c([C@H]2CC[C@@H](c3ccccc3)CC2)[nH]1 | 8 | 23 | 
11 | O=c1[nH]c(=O)c(Cc2cccc(Cl)c2Cl)c([C@H]2CC[C@@H](c3ccccc3)CC2)[nH]1 | 5 | 25 | 
12 | O=c1[nH]c(=O)c(Cc2ccc(Cl)cc2Cl)c([C@H]2CC[C@@H](c3ccccc3)CC2)[nH]1 | 11 | 44 | 
13 | O=c1[nH]c(=O)c(Cc2c(Cl)cccc2Cl)c([C@H]2CC[C@@H](c3ccccc3)CC2)[nH]1 | 11 | 67 | 
14 | O=c1[nH]c(=O)c(Cc2ccccn2)c([C@H]2CC[C@@H](c3ccccc3)CC2)[nH]1 | 188 | 337 | 
15 | O=c1[nH]c(=O)c(Cc2ncccn2)c([C@H]2CC[C@@H](c3ccccc3)CC2)[nH]1 | 400 | > 3000 | 
16 | O=c1[nH]c(=O)c(Cc2ncccc2Cl)c([C@H]2CC[C@@H](c3ccccc3)CC2)[nH]1 | 49 | 116 | 
17 | Cc1cc(Cc2c(=O)[nH]c(=O)[nH]c2[C@H]2CC[C@@H](c3ccccc3)CC2)ccn1 | > 50 | > 3000 | 
18 | O=c1[nH]c(=O)c(Cc2nccs2)c([C@H]2CC[C@@H](c3ccccc3)CC2)[nH]1 | 139 | > 300 | 
19 | Cc1csc(Cc2c(=O)[nH]c(=O)[nH]c2[C@H]2CC[C@@H](c3ccccc3)CC2)n1 | 28 | 119 | 
20 | Cn1nccc1Cc1c(=O)[nH]c(=O)[nH]c1[C@H]1CC[C@@H](c2ccccc2)CC1 | > 1500 | > 3000 | 
21 | Cc1cccc(Cc2c(=O)[nH]c(=O)[nH]c2[C@H]2CC[C@@H](c3ccccc3)CC2)n1 | 22 | 57 | 
22 | O=c1[nH]c(=O)c(Cc2cccc(C(F)(F)F)n2)c([C@H]2CC[C@@H](c3ccccc3)CC2)[nH]1 | 18 | 47 | 
23 | Cc1ccnc(Cc2c(=O)[nH]c(=O)[nH]c2[C@H]2CC[C@@H](c3ccccc3)CC2)c1 | 21 | 44 | 
24 | Cn1c(=O)[nH]c([C@H]2CC[C@@H](c3ccccc3)CC2)c(Cc2ccccc2)c1=O | 24 | 57 | 
25 | Cc1cccc(Cc2c(=O)n(C)c(=O)[nH]c2[C@H]2CC[C@@H](c3ccccc3)CC2)c1 | 19 | 39 | 
26 | Cc1cccc(Cc2c(=O)n(CCN(C)C)c(=O)[nH]c2[C@H]2CC[C@@H](c3ccccc3)CC2)c1 | 9 | > 300 | 
27 | Cn1c(=O)[nH]c([C@H]2CC[C@@H](c3ccccc3)CC2)c(Cc2cccc(C(F)(F)F)c2)c1=O | 16 | 162 | 
28 | O=c1[nH]c([C@H]2CC[C@@H](c3ccccc3)CC2)c(Cc2cccc(C(F)(F)F)c2)c(=O)n1CCO | 98 | > 3000 | 
29 | O=c1[nH]c(N2CCC(c3ccccc3)CC2)c(Cc2ccccc2)c(=O)[nH]1 | 8 |  | inhibition (INH) (Cytochrome P450 2C9): Not Active; inhibition (INH) (Cytochrome P450 1A2): Not Active; inhibition (INH) (Cytochrome P450 3A4): Not Active; inhibition (INH) (Cytochrome P450 2C19): Not Active; Stability (Liver): Stable; inhibition (INH) (Cytochrome P450 2D6): Not Active
